From patent US20250312323A1 (Cavion, Inc., priority 2018, published 2025)
“Also recorded” adds a separate entry of the source.

How the values were obtained:
Assay type in all cases: in vivo, human
[1] = Pharmacokinetics of MR2 CX-8998 in fed versus fasted subjects; conditions: MR2 CX-8998, single dose 1×8 mg
Description: Subjects will be screened for study eligibility within 28 days before administration of the first dose of study drug. Subjects who meet the study eligibility criteria will be admitted to the clinical research unit in the afternoon of the day before administration of the first dose of study drug (Period 1/Day −1).

[2] = system: patients with essential tremor; test: T-CALM: Kinesia ONE accelerometry score
Description: Kinesia One platform is deployed in T-CALM as a digital marker of tremor severity. Kinesia One is FDA cleared for monitoring Parkinson's motor symptom severity with only limited data on assessment of tremor in ET patients. The algorithmically derived score was developed primarily in Parkinson's disease algorithms and has limited validation in ET (see, e.g., Hoffman et al., 2011 Conf Proc IEEE Eng Med Biol Soc. 2011:4378-81). The Kinesia One device is placed on the index finger of each ET patient and worn in the clinic after completion of the TETRAS Performance subscale. Four tasks are performed by the patient on the left and right sides to assess resting, postural, kinetic and lateral wing beating tremor. The Kinesia One score change in score from baseline to day 28 is evaluated as a secondary efficacy endpoint. The Kinesia One data is also utilized for exploratory analysis of efficacy on the change from baseline to day 15 for accelerometry score and for change from baseline on amplitude measures for days 15 and 28. Consistent finger sensor placement and consistent task execution are critical factors for valid Kinesia One scores.
Both sets of scores were statistically analyzed.

[3] = system: patients with essential tremor; test: T-CALM: QUEST questionnaire, items on anti-tremor medication
[4] = system: patients with essential tremor; test: T-CALM: treatment-emergent adverse events, discontinuations, dosage reductions
Description: T-CALM employed the following dose titration scheme: Week 1 at 4 mg BID (8 mg/day), Week 2 at 8 mg BID (16 mg/day) and Weeks 3 & 4 at 10 mg BID (20 mg/day). […] Adverse Events were coded using MedDRA V20.0. Only treatment emergent adverse events with an onset date and time after the initiation of study drug until 30 days after discontinuation of drug were reported. For subjects who experience the same coded event more than once, a single event was presented. Adverse events were attributed to a study week based on the onset date, i.e. events that started on or after Visit 1 and prior to Visit 2 were classified as Study Week 1.
Adverse events are characterized by maximum severity, drug-related adverse events, serious adverse events and adverse events leading to discontinuation of study.
Safety procedures involved collection of all TEAEs (treatment-emergent adverse events) coded into the Medical Dictionary for Regulatory Activities (MedDRA) version 20. Adverse events were classified by maximum severity, drug-related adverse events, serious adverse events, and adverse events leading to patient discontinuation.

[5] = N = 48, inadequate drug supply at Visit 4

With CC(C)c1ccc(CC(=O)N[C@H](C)c2ccc(OCC(F)(F)F)cn2)cc1 [CX-8998] the “effect of fed state on overall exposure as measured by AUC” value [1] was “does not appear to significantly impact overall exposure”, the “effect of fed vs fasted state on early absorption” value [1] was “impacts early absorption” and the “effect of fed vs fasted state on late absorption” value [1] was “does not appear to significantly impact late absorption”. For the same molecule, the “Kinesia ONE Total Score change from baseline, LS mean difference from placebo (95% CI)” value ([2]; Day 15, ANCOVA) was −0.4 (−1.7, 0.9), the “Kinesia ONE score, difference vs placebo” value ([2]; Day 15 and Day 28) was “did not show a significant difference” and the “QUEST: Side effect from tremor medication in past month? answer No, patients, number (%)” value ([3]; Day 15) was 25 (64%). For the same molecule, the “QUEST: Side effect from tremor medication in past month? answer Yes, patients, number (%)” value ([3]; Day 15) was 14 (36%), the “QUEST: Side effect from tremor medication in past month? answer No, patients, number (%)” value ([3]; Day 28) was 30 (77%) and the “QUEST: Side effect from tremor medication in past month? answer Yes, patients, number (%)” value ([3]; Day 28) was 7 (18%). The “Discontinuation due to Nervous System Disorders, subjects, percent” value ([4]; N = 48) was “(8%)”, the “Discontinuation due to Psychiatric Disorders, subjects, number” value ([4]; N = 48) was 4 and the “Discontinuation due to Psychiatric Disorders, subjects, percent” value ([4]; N = 48) was “(8%)”. For the same molecule, the “Dosage reduced during study, subjects, percent” value ([4]; N = 48) was “(8%)”, the “Dosage reduction due to adverse event, subjects, number” value ([4]; N = 48) was 3 and the “Dosage reduction due to adverse event, subjects, percent” value ([4]; N = 48) was “(6%)”. The “Subjects with at least 1 event leading to discontinuation, number” value ([4]; N = 48) was 8, the “Subjects with at least 1 event leading to discontinuation, percent” value ([4]; N = 48) was “(17%)” and the “Dosage reduction due to other reasons, subjects, number” value [4, 5] was 1. The “Dosage reduction due to other reasons, subjects, percent” value [4, 5] was “(2%)^3”, the “TEAE Ear and Labyrinth Disorders (system organ class), subjects, number (%)” value ([4]; Safety Analysis Set, n = 48) was 2 (4%) and the “TEAE Gastrointestinal Disorders (system organ class), subjects, number (%)” value ([4]; Safety Analysis Set, n = 48) was 9 (19%). For the same molecule, the “TEAE Infections and Infestations (system organ class), subjects, number (%)” value ([4]; Safety Analysis Set, n = 48) was 4 (8%), the “TEAE Nervous System Disorders (system organ class), subjects, number (%)” value ([4]; Safety Analysis Set, n = 48) was 20 (42%) and the “TEAE Psychiatric Disorders (system organ class), subjects, number (%)” value ([4]; Safety Analysis Set, n = 48) was 12 (52%). The “Dosage reduction due to TEAEs, patients” value ([4]; T-CALM) was 6%, the “Serious adverse events (alcohol withdrawal syndrome, major depression, suicidal ideation), deemed unrelated to study drug” value ([4]; T-CALM) was “one patient” and the “patients with at least 1 TEAE” value ([4]; T-CALM) was 58%. For the same molecule, the “Discontinuation due to adverse events (TEAEs), patients n (%)” value ([4]; T-CALM, N=48) was 8 (17%), the “TEAE Abnormal dreams, n (%)” value ([4]; T-CALM, n = 48) was 2 (4%) and the “TEAE Disturbance in attention, n (%)” value ([4]; T-CALM, n = 48) was 2 (4%). The “TEAE Dizziness, n (%)” value ([4]; T-CALM, n = 48) was 10 (21%), the “TEAE Dry mouth, n (%)” value ([4]; T-CALM, n = 48) was 2 (4%) and the “TEAE Dysgeusia, n (%)” value ([4]; T-CALM, n = 48) was 2 (4%). For the same molecule, the “TEAE Ear and Labyrinth Disorders, n (%)” value ([4]; T-CALM, n = 48) was 2 (4%), the “TEAE Euphoric mood, n (%)” value ([4]; T-CALM, n = 48) was 3 (6%) and the “TEAE Gastrointestinal Disorders, n (%)” value ([4]; T-CALM, n = 48) was 9 (19%). The “TEAE Hallucination, n (%)” value ([4]; T-CALM, n = 48) was 2 (4%), the “TEAE Headache, n (%)” value ([4]; T-CALM, n = 48) was 4 (8%) and the “TEAE Hypesthesia, n (%)” value ([4]; T-CALM, n = 48) was 0. The “TEAE Infections and Infestations, n (%)” value ([4]; T-CALM, n = 48) was 4 (8%), the “TEAE Insomnia, n (%)” value ([4]; T-CALM, n = 48) was 3 (6%) and the “TEAE Nausea, n (%)” value ([4]; T-CALM, n = 48) was 1 (2%). For the same molecule, the “TEAE Nervous System Disorders, n (%)” value ([4]; T-CALM, n = 48) was 20 (42%), the “TEAE Paraesthesia, n (%)” value ([4]; T-CALM, n = 48) was 2 (4%) and the “TEAE Somnolence, n (%)” value ([4]; T-CALM, n = 48) was 1 (2%). For the same molecule, the “TEAE Tinnitus, n (%)” value ([4]; T-CALM, n = 48) was 2 (4%), the “TEAE Urinary Tract Infection, n (%)” value ([4]; T-CALM, n = 48) was 2 (4%) and the “TEAE Vomiting, n (%)” value ([4]; T-CALM, n = 48) was 0. For the same molecule, the “safety and tolerability in ET patients” value ([4]; T-CALM, up to 10 mg BID) was “safe and well tolerated”, the “Adverse Event (MedDRA Preferred Term) leading to dosage reduction” value ([4]; individual subjects 26-001 (10 to 8 mg BID), 31-023 (8 to 4 mg BID), 33-004 (4 to 2 mg BID), one line each, considered related to study drug) was “Anxiety; also recorded: Electrocardiogram; also recorded: Headache” and the “AE Any Event, percent of subjects” value ([4]; onset in study week 1) was “(40%)”. For the same molecule, the “AE Central Nervous System Disorders, number of subjects” value ([4]; onset in study week 1) was 16, the “AE Central Nervous System Disorders, percent of subjects” value ([4]; onset in study week 1) was “(33%)” and the “AE Ear and Labyrinth Disorders, number of subjects” value ([4]; onset in study week 1) was 2. The “AE Ear and Labyrinth Disorders, percent of subjects” value ([4]; onset in study week 1) was “(4%)”, the “AE Eye Disorders, number of subjects” value ([4]; onset in study week 1) was 1 and the “AE Eye Disorders, percent of subjects” value ([4]; onset in study week 1) was “(2%)”. For the same molecule, the “AE Gastrointestinal Disorders, number of subjects” value ([4]; onset in study week 1) was 7, the “AE Gastrointestinal Disorders, percent of subjects” value ([4]; onset in study week 1) was “(15%)” and the “AE Infections and Infestations, number of subjects” value ([4]; onset in study week 1) was 0. For the same molecule, the “AE Injury, Poisoning and Procedural Complications, percent of subjects” value ([4]; onset in study week 1) was “(2%)”, the “AE Investigations, number of subjects” value ([4]; onset in study week 1) was 1 and the “AE Investigations, percent of subjects” value ([4]; onset in study week 1) was “(2%)”. For the same molecule, the “AE Metabolism and Nutrition Disorders, number of subjects” value ([4]; onset in study week 1) was 1, the “AE Metabolism and Nutrition Disorders, percent of subjects” value ([4]; onset in study week 1) was “(2%)” and the “AE Musculoskeletal and Connective Tissue Disorders, number of subjects” value ([4]; onset in study week 1) was 1. The “AE Musculoskeletal and Connective Tissue Disorders, percent of subjects” value ([4]; onset in study week 1) was “(2%)”, the “AE Neoplasms, number of subjects” value ([4]; onset in study week 1) was 1 and the “AE Neoplasms, percent of subjects” value ([4]; onset in study week 1) was “(2%)”. For the same molecule, the “AE Psychiatric Disorders, number of subjects” value ([4]; onset in study week 1) was 8, the “AE Psychiatric Disorders, percent of subjects” value ([4]; onset in study week 1) was “(17%)” and the “AE Respiratory, Thoracic and Mediastinal Disorders, percent of subjects” value ([4]; onset in study week 1) was “(2%)”. The “AE Skin and Subcutaneous Tissue Disorders, number of subjects” value ([4]; onset in study week 1) was 1.
